# Test results as given in article PMC10305181, “A VEGFB-Based Peptidomimetic Inhibits VEGFR2-Mediated PI3K/Akt/mTOR and PLCγ/ERK Signaling and Elicits Apoptotic, Antiangiogenic, and Antitumor Activities” (Pharmaceuticals, 2023).
# Where two headings read alike, the source gives them in different places. Bridge positions count the residues as written; N and C are the ends. Peptide text beside a SMILES is read from it.
# Key:
# [1] = body weight / tolerability of treated 4T1 tumor-bearing mice; type: in vivo; conditions: 0.2 mg·kg^−1 i.v. once every 2 days
# Method: (§1) Figure 2 Loop formation is important for the antitumor activity of VGB3. (A) To investigate the efficacy of VGB3 peptides in vivo 13 days after transplantation of a 4T1 murine MCT into female BALB/c mice (the tumor volume ~150 mm^3), the treatment groups received 0.2 mg·kg^−1 (once every 2 days, i.v.) of either the C-VGB3 or L-VGB3 and the control group received PBS for 20 days. Error bars denote ± SEM. n = 6; **** p < 0.0001, ns = not significant; two-way ANOVA. (B) Investigation of C-VGB3 and L-VGB3 effects on mice weight. […] (C,D) Immunohistochemical (IHC) analyses of CD31 and Ki67 for the C-VGB3-, L-VGB3- and PBS-treated tumors. For IHC staining, the sections of tumor tissues were incubated with the primary mouse monoclonal antibodies for CD31 (1:2000 (v/v)) and Ki67 (5 µg·mL^−1). […] Photographs were taken at 40× magnification. Error bars denote ± SEM. n = 3; * 0.02 ≤ p ≤ 0.04, ns = not significant; one-way ANOVA.
# The antitumor efficacy of the peptides was investigated as described previously. Thirteen days after implanting, tumor (~150 mm^3)-bearing mice were grouped randomly into control and treated animals (6/group). From day 13 to day 33, the treatment group received cyclic or linear VGB3 (0.2 mg·kg^−1), whereas the control group received an equal volume of PBS (i.v., once every two days). The volume of tumors was calculated as 0.52 × length × width^2. In addition, changes in the weight of animals were recorded every 2 days.
# [2] = tested on: CD31-stained microvessels; test: CD31 immunohistochemistry of 4T1 tumors (microvessel density); type: in vivo, murine; conditions: 0.2 mg·kg^−1 i.v.; day 33; n = 3; p = 0.02
# Method: as §1
# For immunohistochemistry staining, deparaffinized tumor sections were incubated overnight at 4 °C with mouse monoclonal primary anti-Ki67 (5 µg·mL^−1) or anti-CD31 (1:2000 (v/v)). The antigens were detected using 3,3-diaminobenzidine. All images were captured and analyzed with an Olympus BX51 microscope (Olympus America, New York, NY, USA).
# [3] = tested on: HUVECs; test: MTT assay, HUVECs; type: cell-based, human; conditions: VEGF 20 ng·mL^−1, C-VGB3 0–0.91 μM, n = 3, read-out: half-inhibitory concentration (IC50), cell viability
# Method: Figure 4 Inhibition of EC proliferation and tubulogenesis by C-VGB3 through abrogation of VEGFR2-mediated signaling pathways. (A) MTT assay was performed to investigate C-VGB3 effect on the proliferation of ECs. C-VGB3 (0–0.91 μM) was used with (20 ng·mL^−1) or without VEGF. The control cells were treated with no peptide. After 24 and 48 h, the absorbance was measured at 570 nm utilizing an ELISA plate reader (Space Fax 2100, Awareness, Westport, CT, USA). Error bars indicate ± SEM. n = 3; * p = 0.02, ** p = 0.001, *** and ### p = 0.0001, **** and #### p < 0.0001, ns = not significant; one-way ANOVA. (B) The anti-tubulogenesis effect of C-VGB3 in VEGF (20 ng·mL^−1)-induced HUVECs. Image analysis performed by Wimasis image analysis software is illustrated in the bottom panel. Error bars indicate ±SEM. n = 3; *** 0.0004 ≤ p ≤ 0.0001; unpaired Student’s t-test. To evaluate the mechanism by which C-VGB3 diminished cell proliferation and tube formation, Western blot analysis was performed for HUVECs. […]
# (§2) The effects of C-VGB3 and L-VGB3 on the cell survival of HUVE and 4T1 cell lines were investigated using the MTT assay, as previously described, with some modifications. […] After 24 and 48 h of incubation at 37 °C, the absorbance at 570 nm was recorded using an ELISA plate reader (Space Fax 2100, Awareness, Palm City, FL, USA). […]
# [4] = tested on: 4T1 MCT cells; test: MTT assay, 4T1 MCT cells; type: cell-based, murine; conditions: C-VGB3 0–1.81 μM, n = 3, read-out: IC50, proliferation
# Method: Figure 5 Suppression of 4T1 cell proliferation and metastasis by C-VGB3 through blockade of VEGFR2 signaling pathways. (A) MTT assay was performed to investigate C-VGB3 effect on the proliferation of 4T1 tumor cells in vitro. C-VGB3 was used at concentrations 0–1.81 μM in the presence (20 ng·mL^−1) or the absence of VEGF. The control cells were treated with no peptide. After 24 and 48 h, the absorbance was measured at 570 nm utilizing an ELISA plate reader (Space Fax 2100, Awareness, Westport, CT, USA). Error bars represent ± SEM. n = 3; * p = 0.0 2, ** p = 0.001, *** and ### p = 0.0001, **** and #### p < 0.0001, ns = not significant; one-way ANOVA. (B) To evaluate the mechanism by which C-VGB3 diminished cell proliferation and metastasis, Western blot analysis was performed for 4T1 cells. […] Error bars represent ± SEM. n = 3; * p = 0.02, ** p = 0.001, *** p = 0.0001, **** p < 0.0001, ns = not significant; one-way ANOVA.
# as §2
# [5] = tested on: 4T1 cells; test: Annexin V/PI flow cytometry, 4T1 cells; type: cell-based, murine; conditions: 0.40 μM, 24 h, VEGF 20 ng·mL^−1; control 1.80; n = 3; p < 0.0001
# Method: An important consequence of VEGF signals is cell survival dominantly via PI3K/AKT/mTOR pathway. Thus, inhibition of VEGF signals leads to the induction of apoptosis. Accordingly, the ability of C-VGB3 to induce apoptosis was investigated. First, apoptotic endothelial and tumor cells were analyzed by flow cytometry after staining with annexin V-FITC and PI. (Figure 6A). Treatment with C-VGB3 (0.40 μM) induced significant apoptosis in both cell lines compared to the controls. […] Apoptosis induction by C-VGB3 was further characterized by the TUNEL assay, as an indicator of late apoptosis, with a confocal microscope (Figure 6B).
# Annexin V/Propidium Iodide flow cytometry was performed to investigate the C-VGB3 effect on apoptosis induction, as previously described, with some modifications. […]
compound,measurement,setting,value
CC(C)C[C@@H]1NC(=O)CNC(=O)[C@H](CC(=O)O)NC(=O)[C@H](CC(=O)O)NC(=O)[C@@H]2CCCN2C(=O)[C@@H]2CCCN2C(=O)[C@H](CCCNC(=N)N)NC(=O)[C@@H](NC(=O)[C@@H](N)CCC(=O)O)CSSC[C@@H](C(=O)O)NC1=O [C-VGB3] (H-ECRPPDDGLC-OH; disulfide 2-10),toxicity at this dosage (weight gain),[1]; three weeks,not toxic
same,mice weight vs control groups,[1]; two-way ANOVA,no significant differences
same,reduction in vessel density (CD31),[2],84%
same,IC50,[3]; 24 h,510 nM
same,IC50,[3]; 48 h,380 nM
same,IC50,[4]; 24 h,560 nM
same,IC50,[4]; 48 h,370 nM
same,level of apoptotic cells,[5],22.6%
